Results as given in patent publication US3970648A, “2-[2-(5-Nitro-2-furyl)vinyl]-4-(anilino)quinazolines” (Diamond Shamrock Corporation, priority 1974, dated 1976).
Positions of bridges follow the written chain, without caps; N, C: chain ends. Non-standard residues stand in square brackets, D forms with d. Residues, ends and D or L forms follow the SMILES beside them. *: point of attachment. Ileψ(thiazoline)Cys = CC[C@H](C)[C@H](N)C1=N[C@H](C(=O)*)CS1; dOrn = NCCC[C@@H](N)C(=O)O

How the values were obtained:
[1] = Growth promotion in chicks, Example XI (Table V); format: in vivo, broiler cross chicks; details: for feed efficiency (in words) / growth rate (in words): 25 g/T; for Average 4 Week Performance: Feed Efficiency / Average 4 Week Performance: Gain / Improved Response Over Basal Ration: Feed Efficiency / Improved Response Over Basal Ration: Gain: 25 g/T in basal ration, 4 weeks
Text: (§1) This example compares growth promotion activity of the product of Example I with other growth promotants at a concentration of 25 g/T in the Basal Ration described in Example VII. The other growth promotants include the product described in Example I of U.S. Pat. No. 3,542,784 -- Burch and quinoxaline-1,4-dioxide. Day old broiler cross chicks were weight equalized into groups of eight chicks each, and four replicates of eight chicks each were fed the experimental rations over a 4 week period.
The growth promotion tests described in Example X were repeated with the exception that five replicates of eight chicks each were fed the formulations described in Table V for 4 weeks.

[2] = Growth promotion in chicks at low feed levels, Example VIII (Table II); format: in vivo, broiler cross chicks; details: 4 g/T in basal ration; 4 weeks
Text: Day old broiler cross chicks were weight equalized into groups of eight chicks each and were placed in battery brooders. The 32 chick treatment groups (four replicates) were fed one of the five rations described below for a 4 week period. Weekly measurements of body weights and feed consumption were made by replicate, and these measurements used to calculate weight gain and feed efficiency.
The basal ration was the basal ration used in Example VII above. The remaining five rations were obtained by mixing the indicated quantities of bacitracin (4 g/T), chlortetracycline (10 g/T), product of Example I (10 g/T), and product of Example III of U.S. Pat. No. 3,542,784 -- Burch (10 g/T) as growth promotants with the basal ration.

[3] = Growth promotion and feed efficiency in chicks, Example VII (Table I); format: in vivo, broiler cross chicks; details: bacitracin 4 g/T alone in basal ration (negative control); 4 weeks
Text: One hundred 20 day-old broiler cross chicks were weight equalized into 15 groups of eight chicks each and placed in battery brooders. The 40 chick treatment groups (five replicates) were fed the one of the three rations described below for a 4 week period. Weekly measurements of body weights and feed consumption were made by replicate, and these measurements used to calculate weight gain and feed efficiency.
The commercial type broiler starter basal ration which was used in this study was designated as the Basal Ration, and had the following composition:
The preceding basal ration was mixed with bacitracin at a level of 4 g/T as the only growth stimulant to simulate commercial practice. This mixture was designated as the Basal Ration + Bacitracin (4 g/T) and constituted the negative control in this study.
A second ration was prepared by fortifying the Basal Ration + bacitracin described above with the Product from Example I above at a level of 200 g/T, and was designated as Basal Ration + Bacitracin + Product of Example I (200 g/T). A third ration was prepared by fortifying the Basal Ration + bacitracin described above with chlortetracycline (CTC) at a level of 200 g/T, and was designated as Basal Ration + Bacitracin + Chlortetracycline (200 g/T). Chlortetracycline served as the positive control in this test because it had shown strong growth promotion in numerous previous tests at this therapeutic level.
The commercial value of the product of Example I is indicated by the fact that these significant responses were obtained in addition to the growth stimulation provided by the presence of bacitracin in the ration. It is important to note that the negative controls in this example and in Examples VIII and X which follow were characterized by rapid rates of growth. This high plane of growth and feed efficiency performance on the part of the negative controls makes the responses to the test compounds all the more meaningful.
The term "growth promotion" is used herein to describe the beneficial effect of a compound in eliciting a more rapid rate of weight gain when compared to the weight gain of control animals not fed the compound. "Feed efficiency" is a term regularly used in animal husbandry and is a measure of the pounds of feed required to produce a pound of gain in the weight of the animal. A lower mathmatical value for feed efficiency reflects improved performance. […] In this case, as in the case of the weight gain (fifth column), an improved performance is indicated by a higher positive number.

[4] = tested on: Bordetella bronchiseptica; test: Bactericide test, Bordetella bronchiseptica (agar streak plate); format: cell-based; details: 100% inhibition at lower concentrations
Text: (§2) Test formulations were examined for bactericidal and/or bacteriostatic activity against the test organisms shown in Tables A and B. These organisms were chosen as being representative of commercially important pathogens affecting animal agriculture. The antibiotic chlortetracycline was chosen as a positive control, since it has a broad spectrum of activity against a large number of organisms, and its activity can be used for comparative purposes.
(§3) Basic test formulations of the product of Examples I, II, III, and of chlortetracycline were prepared by dissolving 16 mg (0.016 g) in 2.0 ml of stock emulsifier solution (0.25% Triton X-155 in acetone by volume) and making each solution up to 50 ml with deionized water. The concentration of the test compound in the basic formulation was 320 ppm. Lower concentrations of the test compound were obtained by diluting the basic formulation with a 4% solution of the stock emulsifier in deionized water so that each dilution in the series differed only in test compound content.
(§4) Nutrient-tryptic soy agar (NTA) consisting of 2.0% Difco Bactoagar 0.8% nutrient broth (Difco), and 0.5% tryptic soy broth (Difco) was prepared and sterilized by autoclaving. A 2 ml aliquot of each test formulation was added to 8 ml of molten NTA. This mixture was then plated in a sterile polystyrene petri dish (100 × 15 mm). After the agar was set, suspensions of each of the test organisms were simultaneously streaked onto the surface of the agar. The inoculated plates were incubated for 48 hr at 28°C. The inhibition of growth of each organism was rated by visual comparison with the organism developing on non-treated agar. Growth inhibition reported as per cent control was rated in three categories as follows: 0% control, growth equivalent to that on non-treated agar; 50% control, sparse development and separated colonies; 100% control, no visible growth or development of colonies.

[5] = tested on: Erysipelothrix rhusiopathiae; test: Bactericide test, Erysipelothrix rhusiopathiae (agar streak plate); format: cell-based; details: 100% inhibition at lower concentrations
Text: as §2, §3, §4

[6] = tested on: Vibrio coli; test: Bactericide test, Vibrio coli (agar streak plate); format: cell-based; details: 100% inhibition at lower concentrations
Text: as §2, §3, §4

[7] = tested on: Streptococcus faecalis; test: Bactericide test, Streptococcus faecalis (agar streak plate); format: cell-based; details: 100% inhibition at lower concentrations
Text: as §2, §3, §4
(§5) Test formulations of the product of Example IV were examined for bactericidal and/or bacteriostatic activity against the test organisms shown in Table B using the Bactericide Test described in Example V. The inhibition of organism growth with each diluted test formulation was rated visually by comparison with the organism developing on a non-treated control agar plate. Growth inhibition reported as per cent control was rated in three categories as follows: 0% control, growth equivalent to that on non-treated agar; 50% control is sparse development and separated colonies; and 100% control, development of individual colonies was not apparent.

[8] = tested on: Salmonella gallinarum; test: Bactericide test, Salmonella gallinarum (agar streak plate); format: cell-based; details: Salmonella enterica, GALLINARUM, read-out: % Control In Vitro Growth
Text: as §2, §3, §4, §5

[9] = tested on: Salmonella cholerasuis; test: Bactericide test, Salmonella cholerasuis (agar streak plate); format: cell-based; details: Salmonella, read-out: % Control In Vitro Growth
Text: as §2, §3, §4, §5

[10] = tested on: Streptococcus group E; test: Bactericide test, Streptococcus group E (agar streak plate); format: cell-based; details: 100% inhibition at lower concentrations
Text: as §2, §3, §4

[11] = tested on: Streptococcus agalactiae; test: Bactericide test, Streptococcus agalactiae (agar streak plate); format: cell-based; details: 100% inhibition at lower concentrations
Text: as §2, §3, §4

[12] = Growth promotion in chicks at 25 g/T, Example X (Table IV); format: in vivo, broiler cross chicks
Text: as §1

[13] = 25 g/T in basal ration, 4 weeks

In the case of `CC[C@H](C)[C@H](N)C1=N[C@H](C(=O)N[C@@H](CC(C)C)C(=O)N[C@H](CCC(=O)O)C(=O)N[C@H](C(=O)N[C@H]2CCCCNC(=O)[C@H](CC(N)=O)NC(=O)[C@@H](CC(=O)O)NC(=O)[C@H](Cc3cnc[nH]3)NC(=O)[C@@H](Cc3ccccc3)NC(=O)[C@H]([C@@H](C)CC)NC(=O)[C@@H](CCCN)NC2=O)[C@@H](C)CC)CS1` [Bacitracin] ({Ileψ(thiazoline)Cys}-L[dE]IK[dOrn]I[dF]H[dD]N; lactam 4-C), the “feed efficiency (in words)” value [1] is reported as “moderate improvements in feed efficiencies”, the “growth rate (in words)” value [1] is reported as “slight improvements in growth rates” and the “Average 4 Week Performance: Feed Efficiency” value [1] is reported as 1.746. For the same compound, the “Average 4 Week Performance: Gain” value [1] was 741.3 g, the “Improved Response Over Basal Ration: Feed Efficiency” value [1] was “+3.1%” and the “Improved Response Over Basal Ration: Gain” value [1] was “+1.2%”. The “Average 4 Week Performance: Feed Efficiency” value [2] was 1.739, the “Average 4 Week Performance: Gain” value [2] was 703.6 g and the “Improved Response Over Basal Ration: Feed Efficiency” value [2] was “+1.2%”. The “Improved Response Over Basal Ration: Gain” value [2] was -2.3%, the “Average 4 Week Performance: Feed Efficiency” value [3] was 1.721 and the “Average 4 Week Performance: Gain” value [3] was 694.5 gms.

In the case of `O=[N+]([O-])c1ccc(C=Cc2nc(Nc3ccccc3)c3ccccc3n2)o1` [Example IV, 2-[2-(5-nitro-2-furyl)vinyl]-4-anilinoquinazoline], the “effectiveness compared with chlortetracycline (in words)” value [4] is reported as “considerably more effective”, the “effectiveness compared with chlortetracycline (in words)” value [5] is reported as “considerably more effective” and the “effectiveness compared with chlortetracycline (in words)” value [6] is reported as “considerably more effective”. For the same compound, the “effectiveness compared with chlortetracycline (in words)” value [7] was “considerably more effective”, the inhibition of growth at 0.007 ppm ([8]; 0.007 ppm) was 0% and the inhibition of growth at 0.01 ppm ([8]; 0.01 ppm) was 0%. For the same compound, the inhibition of growth at 0.03 ppm ([8]; 0.03 ppm) was 0%, the inhibition of growth at 0.06 ppm ([8]; 0.06 ppm) was 0% and the inhibition of growth at 0.125 ppm ([8]; 0.125 ppm) was 0%. The inhibition of growth at 0.25 ppm ([8]; 0.25 ppm) was 100%, the inhibition of growth at 0.5 ppm ([8]; 0.5 ppm) was 100% and the inhibition of growth at 1 ppm ([8]; 1 ppm) was 100%. The inhibition of growth at 2 ppm ([8]; 2 ppm) was 100%, the inhibition of growth at 4 ppm ([8]; 4 ppm) was 100% and the inhibition of growth at 0.007 ppm ([9]; 0.007 ppm) was 0%. It also gave an inhibition of growth at 0.01 ppm ([9]; 0.01 ppm) of 0%, an inhibition of growth at 0.03 ppm ([9]; 0.03 ppm) of 0% and an inhibition of growth at 0.06 ppm ([9]; 0.06 ppm) of 0%. The inhibition of growth at 0.125 ppm ([9]; 0.125 ppm) was 0%, the inhibition of growth at 0.25 ppm ([9]; 0.25 ppm) was 0% and the inhibition of growth at 0.5 ppm ([9]; 0.5 ppm) was 0%. It also gave an inhibition of growth at 1 ppm ([9]; 1 ppm) of 50%, an inhibition of growth at 2 ppm ([9]; 2 ppm) of 50% and an inhibition of growth at 4 ppm ([9]; 4 ppm) of 50%. For the same compound, the “effectiveness compared with chlortetracycline (in words)” value [10] was “considerably more effective” and the “effectiveness compared with chlortetracycline (in words)” value [11] was “considerably more effective”.

In the case of `[O-][n+]1cc[n+]([O-])c2ccccc21` [Quinoxaline-1,4-dioxide, quinoxaline-1,4-dioxide], the “feed efficiency (in words)” value [1] is reported as “improvement in feed efficiency”, the “growth rate (in words)” value [1] is reported as “questionable effect on growth” and the “Average 4 Week Performance: Feed Efficiency” value [1] is reported as 1.709. For the same compound, the “Average 4 Week Performance: Gain” value [1] was 740.8 g, the “Improved Response Over Basal Ration: Feed Efficiency” value [1] was “+5.2%” and the “Improved Response Over Basal Ration: Gain” value [1] was “+1.1%”. For the same compound, the “effect on feed efficiency (in words)” value ([12]; 25 g/T) was “did not have any apparent effect”, the “growth response (in words)” value ([12]; 25 g/T) was “did not have any apparent effect” and the “Average 4 Week Performance: Feed Efficiency” value [12, 13] was 1.550. For the same compound, the “Average 4 Week Performance: Gain” value [12, 13] was 756.6 g, the “Improved Response Over Basal Ration: Feed Efficiency” value [12, 13] was “+0.1%” and the “Improved Response Over Basal Ration: Gain” value [12, 13] was -1.1%.
